From US20250268873A1, “COMBINATION OF DUAL ATM AND DNA-PK INHIBITORS AND IMMUNOTHERAPEUTIC AGENTS FOR USE IN CANCER THERAPY” (XRAD THERAPEUTICS, INC., priority 2021, published 2025)

Tested on: DNA-PK and ATM kinases
Assay: Immunoblot of radiation-induced phosphorylation in MCF7 cells
Assay type: cell-based, human
Details: 20, 100, 500, 1000 nM, 30 min pre-treatment, 10 Gy IR
Source text: Antibodies recognizing phosphorylated/activated ATM (S1981, #ab81292) and DNA-PKcs (S2056, #ab18192) were purchased from Abcam Biotechnology (Cambridge, MA). Antibodies to ATM (#A1106) and DNA-PKcs (#ab1832) were from Sigma and Abcam, respectively. Phospho-KAP1 (S824, #A300-767A) and KAP1 (A700-014) antibodies were from Bethyl Labs (Montgomery, TX). Phospho-TBK1 (#5483), cGAS (#15102), and pSTING (S366, #19781S) antibodies were from Cell Signaling Technology (CST) (Danvers, MA). STING (PA5-23381) antibodies were from ThermoFisher Scientific (Waltham, MA), and actin (#A5316) antibodies were from Sigma. […]
Cells were pretreated with Compound 569 at 20, 100, 500, or 1000 nM or DMSO for 30 min and then irradiated with 0 or 10 Gy (XRAD 160, Precision X Ray) as shown in FIG. 1. […] One hour after IR, cells were lysed in RIPA buffer ([…], pH 8.0, 150 mM NaCl, 0.1% SDS, 0.5% sodium deoxycholate, 1% IGEPAL® CA-630 (Sigma, 18896) for 20 min at 4° C. in the presence of protease and phosphatase inhibitor cocktails (Roche, #04693159001 & #04906837001). Cell lysates were centrifuged at 13,200 g for 10 min at 4° C. and supernatants were analyzed for protein content using BCA assay (Pierce™ BCA Protein Assay Kit, cat #23227, ThermoFisher Waltham, MA 02451) and equal amounts of protein/lane were used for subsequent immunoblot analyses. Proteins were denatured by adding NuPAGE LSD Sample Buffer [4×] […]

For `CC(C)NCCOc1ncc(-c2cc3c4c(cnc3cc2F)N(C)C(=O)C42CCC2)cc1NS(C)(=O)=O` [Compound 569, N-(5-(7′-Fluoro-3′-methyl-2′-oxo-2′,3′-dihydrospiro[cyclobutane-1,1′-pyrrolo[2,3-c]quinolin]-8′-yl)-2-(2-(isopropylamino)ethoxy)pyridin-3-yl)methanesulfonamide], the “inhibition of radiation-induced phosphorylation of DNA-PKcs (Ser2056), ATM (Ser1981) and KAP1 (ser824)” value was “potent dose-dependent inhibition”.
